Reference: US20240417405A1, “Substituted Spiro Derivatives” (Janssen Pharmaceutica NV, priority 2021, published 2024)

Key:
[1] = molecular target: T1, menin/MLL (terbium chelate-labeled menin, FITC-MBM1 peptide) (Homo sapiens, UniProt O00255, T541A); assay: Menin/MLL homogenous time-resolved fluorescence (HTRF) assay; assay type: binding; conditions: 30 min incubation
T1 construct: Menin (a.a 1-610-6xhis tag)
T1 sequence (O00255 with tags, fused parts or gaps T541A): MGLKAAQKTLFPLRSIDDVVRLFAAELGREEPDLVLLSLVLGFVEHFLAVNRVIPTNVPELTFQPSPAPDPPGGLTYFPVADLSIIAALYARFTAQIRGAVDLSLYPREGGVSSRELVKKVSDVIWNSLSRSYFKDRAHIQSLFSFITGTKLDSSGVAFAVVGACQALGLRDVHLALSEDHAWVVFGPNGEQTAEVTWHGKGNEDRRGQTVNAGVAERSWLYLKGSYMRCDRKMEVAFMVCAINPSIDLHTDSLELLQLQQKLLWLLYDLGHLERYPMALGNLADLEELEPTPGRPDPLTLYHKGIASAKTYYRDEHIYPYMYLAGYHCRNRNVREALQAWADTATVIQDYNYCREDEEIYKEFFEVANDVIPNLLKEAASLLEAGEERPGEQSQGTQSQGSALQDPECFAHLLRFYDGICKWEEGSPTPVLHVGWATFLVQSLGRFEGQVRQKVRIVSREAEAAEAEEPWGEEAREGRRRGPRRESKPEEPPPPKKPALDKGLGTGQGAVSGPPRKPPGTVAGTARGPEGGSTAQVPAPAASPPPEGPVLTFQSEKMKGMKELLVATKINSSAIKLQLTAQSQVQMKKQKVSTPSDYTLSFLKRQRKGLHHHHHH
In short: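 Displacement of FITC-labeled MBM1 peptide (75 nM) from terbium-labeled menin 1-610 (200 pM) measured by HTRF emission ratio. Eleven four-fold dilutions, typically from 10 μM, normalised to saturating-competitor and no-compound controls; IC50 from four-parameter logistic.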

MOLM14 cells = assay: Proliferation assay, spheroid-like growth, MOLM14 (MLL-AF9 rearranged); assay type: cell-based, human; conditions: Homo sapiens, MOLM-14, 192 h, 8 days, confluence as measure of spheroid size, read-out: spheroid assay_OneTime MOLM14 IC50
In short: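 Read-out is spheroid confluence from live-cell images taken on day 8, scaled between DMSO-treated wells (0% cytotoxicity) and a low control such as 1 μM staurosporin. Cells were exposed to compound for 8 days in low-attachment plates; KO-52 served as the MLL-wildtype counterscreen.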

Compound	IC50 [1] [nM]	IC50 (MOLM14 cells) [nM]
Cc1ncc(-c2cc(F)ccc2Oc2nncnc2N2CCC3(C2)CN([C@@H](C(C)C)[C@H]2C[C@@H](N4CC[C@H](NC(=O)C5CC5)C4)C2)C3)c(C2CC2)n1 [Compound 387]	0.026	< 1.8
CC(C)[C@H]([C@H]1C[C@@H](NC2CS(=O)(=O)C2)C1)N1CC2(CCN(c3ncnnc3Oc3ccc(F)cc3-c3cncnc3C3CC3)C2)C1 (single isomer, unassigned) [Compound 235]	0.5	3
CC(=O)N1CC2(C1)CN([C@H]1C[C@H]([C@H](C(C)C)N3CC4(CCN(c5ncnnc5Oc5ccc(F)cc5-c5ncc(C)cc5C5CC5)C4)C3)C1)C2 (single isomer, unassigned) [Compound 374]	0.19	140
CO[C@H]1CCN([C@H]2C[C@H](C(C(C)C)N3CC4(CCN(c5ncnnc5Oc5ccc(F)cc5-c5nnccc5C5CC5)C4)C3)C2)C1 (single isomer, unassigned) [Compound 332]	0.7	37
CC(C)[C@H]([C@H]1C[C@@H](Nc2ncnc3[nH]ncc23)C1)N1CC2(CCN(c3ncnnc3Oc3ccc(F)cc3-c3cncnc3C3CC3)C2)C1 (single isomer, unassigned) [Compound 413]	0.08	26
CC(C)[C@H]([C@H]1C[C@@H](Nc2ccn3ccnc3c2)C1)N1CC2(CCN(c3ncnnc3Oc3ccc(F)cc3-c3cncnc3C3CC3)C2)C1 (single isomer, unassigned) [Compound 406]	0.3	42
CNC(=O)c1cc(N[C@H]2C[C@@H]([C@@H](C(C)C)N3CC4(CCN(c5ncnnc5Oc5ccc(F)cc5-c5cncnc5C5CC5)C4)C3)C2)ccn1 (single isomer, unassigned) [Compound 451]	0.15	11
CO[C@H]1CCN([C@H]2C[C@@H]([C@H](C(C)C)N3CC4(CCN(c5ncnnc5Oc5ccc(F)cc5-c5nnc(C)cc5C5CC5)C4)C3)C2)C1 [Compound 398]	0.144	6.4
Cc1ncc(-c2cc(F)ccc2Oc2nncnc2N2CCC3(C2)CN([C@@H](C(C)C)[C@H]2C[C@@H](N4CC[C@@H](NC(=O)C5CC5)C4)C2)C3)c(C2CC2)n1 [Compound 386]	0.059	< 1.8
CO[C@H]1[C@@H]2CN([C@H]3C[C@H]([C@H](C(C)C)N4CC5(CCN(c6ncnnc6Oc6ccc(F)cc6-c6nnc(C)cc6C6CC6)C5)C4)C3)C[C@@H]21 [Compound 403]	0.59	230
CNC(=O)c1cnc(N[C@H]2C[C@@H]([C@@H](C(C)C)N3CC4(CCN(c5ncnnc5Oc5ccc(F)cc5-c5cnc(C)nc5C5CC5)C4)C3)C2)o1 (single isomer, unassigned) [Compound 416]	0.17	8.9
CNC(=O)c1csc(N[C@H]2C[C@@H]([C@@H](C(C)C)N3CC4(CCN(c5ncnnc5Oc5ccc(F)cc5-c5cncnc5C5CC5)C4)C3)C2)n1 (single isomer, unassigned) [Compound 453]	0.05	6
CC(C)[C@@H]([C@H]1C[C@@H](N2C[C@H]3COC[C@H]3C2)C1)N1CC2(CCN(c3ncnnc3Oc3ccc(F)cc3-c3cncnc3C3CC3)C2)C1 (single isomer, unassigned) [Compound 244]	1.6	130
CC(C)[C@H]([C@H]1C[C@@H](N2CC3(CCOC3)C2)C1)N1CC2(CCN(c3ncnnc3Oc3ccc(F)cc3-c3cncnc3C3CC3)C2)C1 (single isomer, unassigned) [Compound 247]	0.1	9
CC(C)[C@H]([C@H]1C[C@@H](Nc2ccnc(N)n2)C1)N1CC2(CCN(c3ncnnc3Oc3ccc(F)cc3-c3cncnc3C3CC3)C2)C1 (single isomer, unassigned) [Compound 463]	0.082	29
CNC(=O)CCN(C)[C@H]1C[C@@H]([C@@H](C(C)C)N2CC3(CCN(c4ncnnc4Oc4ccc(F)cc4-c4cncnc4C4CC4)C3)C2)C1 (single isomer, unassigned) [Compound 350]	0.1	10

Compound	IC50 [1] [nM]	IC50 (MOLM14 cells) [nM]
CNC(=O)c1cc(N[C@H]2C[C@@H]([C@@H](C(C)C)N3CC4(CCN(c5ncnnc5Oc5ccc(F)cc5-c5cncnc5C5CC5)C4)C3)C2)cnn1 (single isomer, unassigned) [Compound 432]	0.17	22
CC(=O)N1CCN([C@H]2C[C@@H]([C@H](C(C)C)N3CC4(CCN(c5ncnnc5Oc5ccc(F)cc5-c5nnccc5C5CC5)C4)C3)C2)CC1 (single isomer, unassigned) [Compound 277]	0.9	250
CC(C)C([C@H]1C[C@@H](N2CC[C@@](C)(O)C2)C1)N1CC2(CCN(c3ncnnc3Oc3ccc(F)cc3-c3cnccc3C3CC3)C2)C1 (mixture of isomers) [Compound 137]	0.2	7
CNC(=O)c1cccc(N[C@H]2C[C@@H](C(C(C)C)N3CC4(CCN(c5ncnnc5Oc5ccc(F)cc5-c5cncnc5C5CC5)C4)C3)C2)n1 (single isomer, unassigned) [Compound 450]	0.08	7
CC(C)[C@H]([C@H]1C[C@@H](N2CCC3(CN(C)C(=O)O3)C2)C1)N1CC2(CCN(c3ncnnc3Oc3ccc(F)cc3-c3cncnc3C3CC3)C2)C1 (single isomer, unassigned) [Compound 329]	0.3	32
CC(C)[C@@H]([C@H]1C[C@@H](NC(=O)C2CC2)C1)N1CC2(CCN(c3ncnnc3Oc3ccc(F)cc3-c3n[nH]c(=O)cc3C3CC3)C2)C1 (single isomer, unassigned) [Compound 310]	24.2	> 940
Cc1cc(C2CC2)c(-c2cc(F)ccc2Oc2nncnc2N2CCC3(C2)CN([C@@H](C(C)C)[C@H]2C[C@H](N4C[C@@H]5[C@H](C4)[C@H]5C(=O)N(C)C)C2)C3)nn1 [Compound 401]	0.52	260
CC(=O)N1CCN([C@H]2C[C@@H](C(C(C)C)N3CC4(CCN(c5ncnnc5Oc5ccc(F)cc5-c5cnc(C#N)nc5C5CC5)C4)C3)C2)CC1 (stereo partly shown) [Compound 169]	0.5	51
Cc1ncc(-c2cc(F)ccc2Oc2nncnc2N2CCC3(C2)CN([C@@H](C(C)C)[C@H]2C[C@@H](N4C[C@@H]5[C@H](C4)[C@H]5NC(=O)C4CC4)C2)C3)c(C2CC2)n1 [Compound 385]	0.026	< 1.8
Cc1ncc(-c2cc(F)ccc2Oc2nncnc2N2CCC3(C2)CN([C@@H](C(C)C)[C@H]2C[C@@H](N4CC[C@H](C(=O)N(C)C)C4)C2)C3)c(C2CC2)n1 [Compound 383]	0.04	2.3
CNC(=O)c1sc(N[C@H]2C[C@@H]([C@@H](C(C)C)N3CC4(CCN(c5ncnnc5Oc5ccc(F)cc5-c5cncnc5C5CC5)C4)C3)C2)nc1C (single isomer, unassigned) [Compound 443]	0.08	4
Cc1nnc(-c2cnc(N[C@H]3C[C@@H]([C@@H](C(C)C)N4CC5(CCN(c6ncnnc6Oc6ccc(F)cc6-c6cncnc6C6CC6)C5)C4)C3)s2)o1 (single isomer, unassigned) [Compound 445]	0.19	6
CC(C)[C@H]([C@H]1C[C@@H](Nc2nnc(N)s2)C1)N1CC2(CCN(c3ncnnc3Oc3ccc(F)cc3-c3cncnc3C3CC3)C2)C1 (single isomer, unassigned) [Compound 447]	0.15	4
CC(C)[C@H]([C@H]1C[C@@H](N2CCC3(CCO3)C2)C1)N1CC2(CCN(c3ncnnc3Oc3ccc(F)cc3-c3nnccc3C3CC3)C2)C1 (single isomer, unassigned) [Compound 269]	5.6	> 940
CC(C)[C@H]([C@H]1C[C@@H](N2CC3(CNC(=O)O3)C2)C1)N1CC2(CCN(c3ncnnc3Oc3ccc(F)cc3-c3cncnc3C3CC3)C2)C1 (single isomer, unassigned) [Compound 317]	0.3	60
CO[C@H]1[C@@H]2CN([C@H]3C[C@@H]([C@H](C(C)C)N4CC5(CCN(c6ncnnc6Oc6ccc(F)cc6-c6cnncc6C6CC6)C5)C4)C3)C[C@@H]21 (single isomer, unassigned) [Compound 282a]	2.4	280
